US20220153786A1, “PEPTIDES FOR PREVENTING BIOFILM FORMATION” (priority 2019, published 2022)

Key:
[1] = test system: Staphylococcus epidermidis ATCC 35984; experiment: Bacterial growth assay, microtiter plates OD600; format: cell-based; settings: untreated growth control = 100%
Procedure: Bacterial growth assays. Microtiter plates: bacterial growth was evaluated by difference between the optical density absorbance at 600 nm measured at the end and the beginning of the incubation time (37° C., 1, 4 or 24 h) in 96-well poly(vinyl chloride) microtiter plates. Rifampicin 16 μg/mL (Sigma-Aldrich Co., USA) was used as a control for bacterial growth inhibition. Colony-forming units (CFU/mL): after incubation (37° C., 24 h) the CFU was calculated to determine bactericidal effect of peptide solution. Untreated growth control was considered 100% of planktonic cells. All assays were at least performed as technical and biological triplicates.
Microtiter plates: Bacterial growth was evaluated by comparing OD600 values at the start and end of incubation in 96-well PVC microtiter plates.

[2] = test system: Staphylococcus epidermidis RP62A (ATCC 35984) biofilm; experiment: Biofilm formation inhibition, crystal violet in 96-well PVC microtiter plates; format: cell-based; settings: biofilm formation control = 100%
Procedure: Biofilm formation. […] Biofilm inhibition: a protocol adapted from Zimmer et al. (2013) Environmental Microbiology 15:2008-2018 and Trentin et al. (2015) Scientific Reports 5:8287, employing crystal violet in 96-well poly(vinyl chloride) microtiter plates (Falcon; Becton Dickinson Labware, Oxnard, Calif.) was used. Briefly, 100 μL of the bacterial suspension, 100 μL of the peptide solution (at different concentrations) or vehicle (to controls) and 50 μL of tryptone soya broth (TSB, Oxoid Ltd., England). Following 37° C. for 1, 4 or 24 h of incubation, the content of the wells was removed and the wells were washed three times with sterile saline. The remaining contents were heat-fixed at 60° C. for 1 h. The adherent biofilm layer formed was stained with 0.4% crystal violet for 15 min at room temperature and then washed three times with distilled water. The stain bound to the cells was solubilized with absolute ethanol (Sigma-Aldrich Co., USA) and absorbance was measured at 570 nm (Powerwave™ XS Plate Reader, BIO-TEK Instruments®, Inc.). The biofilm formation controls represent 100% of biofilm formation. Biofilm eradication: biofilm was pre-formed as described before, during 24 h at 37° C., without treatment. After biofilm formation, the wells were washed to remove the planktonic cells and the peptides solutions and controls were added and incubated for 24 h. The eradication was verified by evaluating the remaining content by crystal violet.
Biofilm formation inhibition: A protocol adapted from Trentin et al. (2015) Scientific Reports 5 was used, with crystal violet in 96-well BD Falcon polyvinyl chloride (PVC) microtiter plates. The cell-bound stains were solubilized with absolute ethanol (Sigma-Aldrich), and absorbance was measured at 570 nm using a BIO-TEK PowerWave XS plate reader. The biofilm formation control represents 100% of biofilm formation.

[3] = positive control, concentration 780 (μM)

| Molecule | Growth (%) ([1]; peptide concentration 100 μM) | Remanescent biofilm (%) ([2]; peptide concentration 100 μM) | also measured |
| --- | --- | --- | --- |
| CO[C@H]1/C=C/O[C@@]2(C)Oc3c(C)c(O)c4c(O)c(c(/C=N/N5CCN(C)CC5)c(O)c4c3C2=O)NC(=O)/C(C)=C\C=C\[C@H](C)[C@H](O)[C@@H](C)[C@@H](O)[C@@H](C)[C@H](OC(C)=O)[C@@H]1C [Rifampicin, reference compound] |  |  | Growth (%) [1, 3]: 28.7%; Remanescent biofilm (%) [2, 3]: 9.7% |
| IQQAQQLS (P3y) |  |  | Growth (%) ([1]; peptide concentration 10 μM): 172.0%; Remanescent biofilm (%) ([2]; peptide concentration 10 μM): 6.2% |
| RSCQQQ (P3x) | 91.9 | 34.4 |  |
| RSCQQQIQQAQQ (P3a) | 89.9 | 61.5 |  |
| RSCQQQIQQAQQLSSCQQYLKQRVQSEEGEDQISQRE (P31) [synthetic peptide derived from 2S sulfur-rich seed storage protein 2-like of Capsicum baccatum] |  |  | Growth (%) ([1]; peptide concentration 400 μM): 88.6%; Remanescent biofilm (%) ([2]; peptide concentration 400 μM): 8.3% |
| RVQSEEGEDQISQRE (P1) | 123.2 | 64.9 |  |
| SCQQYLKQ (P3z) | 169.9 | 46.3 |  |
